Reference: ChEMBL document CHEMBL3872248, “Discovery and initial optimization of alkoxyanthranilic acid derivatives as inhibitors of HCV NS5B polymerase” (Bioorg Med Chem Lett, 2017)
The source made the active and inactive calls. The calls are words filed in the database; no cut-off is given here.

Tests used:
[1] = Inhibition of wild-type HCV genotype 1b Con1 C-terminal truncated NS5B RNA dependent RNA polymerase expressed in Escherichia coli BL21(DE3) Star assessed as inhibition of [alpha-32P]UTP incorporation using polyrA/T12 as template/primer measured after 60 mins by TopCount NXT method; set-up: species or system Hepatitis C virus (isolate Con1)
Hepatitis C virus [2] = experiment: Antiviral activity against HCV genotype 1b Con1 expressing NS3 protease infected in human Huh-7 cells assessed as reduction in viral RNA replication measured after 3 days by EnduRen-based luciferase reporter gene assay; type: functional, cell-based, Hepacivirus hominis; details: genotype 1b Con1, Huh-7, 72 h
Hepatitis C virus [3] = experiment: Antiviral activity against HCV genotype 1b Con1 expressing C-terminal truncated NS5B assessed as inhibition of viral RNA production at 50 uM by high throughput screening method; type: functional; details: Hepacivirus hominis
[4] = molecular target: RNA-directed RNA polymerase (Hepacivirus hominis, UniProt O39930, C316Y); experiment: Inhibition of wild-type HCV genotype 1b Con1 NS5B RNA dependent RNA polymerase C316Y mutant expressed in Escherichia coli BL21(DE3) Star assessed as inhibition of [alpha-32P]UTP incorporation using polyrA/T12 as template/primer measured after 60 mins by TopCount NXT method; set-up: species or system Hepatitis C virus (isolate Con1)
Sequence of RNA-directed RNA polymerase (O39930 entry or part of it C316Y): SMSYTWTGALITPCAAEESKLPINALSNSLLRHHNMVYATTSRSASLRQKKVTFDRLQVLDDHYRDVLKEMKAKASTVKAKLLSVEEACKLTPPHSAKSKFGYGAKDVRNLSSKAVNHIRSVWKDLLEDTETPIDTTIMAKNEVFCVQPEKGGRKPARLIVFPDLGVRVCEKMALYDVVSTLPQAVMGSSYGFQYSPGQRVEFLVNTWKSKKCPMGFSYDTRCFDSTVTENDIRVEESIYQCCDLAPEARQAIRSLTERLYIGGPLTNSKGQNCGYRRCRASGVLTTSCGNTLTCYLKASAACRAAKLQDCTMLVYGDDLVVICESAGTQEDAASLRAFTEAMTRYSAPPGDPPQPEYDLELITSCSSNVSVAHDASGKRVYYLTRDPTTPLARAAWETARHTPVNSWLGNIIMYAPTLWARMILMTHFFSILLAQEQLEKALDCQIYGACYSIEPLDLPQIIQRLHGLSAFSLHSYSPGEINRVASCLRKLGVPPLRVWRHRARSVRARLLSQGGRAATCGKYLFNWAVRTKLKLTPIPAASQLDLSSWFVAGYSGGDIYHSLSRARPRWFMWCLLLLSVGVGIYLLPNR

Compound	IC50 [1] [µM]	other results
O=C(O)c1cccc(OCc2ccc(Cl)cc2)c1N1CCCc2ccccc2C1=O	32	
O=C(O)COc1cccc2c1CN(c1c(OCc3ccc(Cl)cc3)cccc1C(=O)O)C2=O	4.4	
O=C(O)c1cccc(OCc2ccc(Cl)cc2)c1N1Cc2c(O)cccc2C1=O	6.6	
O=C(O)c1ccc(OCc2ccc(Cl)cc2)c(NC(=O)c2ccccc2)c1	8.3	
O=C(O)CCCOc1ccccc1C(=O)Nc1c(OCc2ccc(Cl)cc2)cccc1C(=O)O	2.1	
CN(C(=O)c1ccccc1)c1c(OCc2ccc(Cl)cc2)cccc1C(=O)O	> 50	
CS(=O)(=O)NC(=O)c1ccc(OCc2ccc(Cl)cc2)c(NC(=O)c2ccccc2)c1	15	
O=C(O)/C=C/c1cccc2c1CN(c1c(OCc3ccc(Cl)cc3)cccc1C(=O)O)C2=O	1.7	
O=C(O)Cc1cccc(OCc2ccc(Cl)cc2)c1NC(=O)c1ccccc1	10	
O=C(NCCO)c1ccc(OCc2ccc(Cl)cc2)c(NC(=O)c2ccccc2)c1	> 50	
O=C(O)CNC(=O)c1ccc(OCc2ccc(Cl)cc2)c(NC(=O)c2ccccc2)c1	6.2	
O=C(O)CNC(=O)c1ccc(OCc2ccc(Cl)cc2)c(N2Cc3ccccc3C2=O)c1	0.88	EC50 (Hepatitis C virus [2]): > 100 µM
CS(=O)(=O)NC(=O)c1cccc(OCc2ccc(Cl)cc2)c1NC(=O)c1ccccc1	24	
O=C(Nc1c(OCc2ccc(Cl)cc2)cccc1C(=O)O)c1ccccc1O	4.6	
O=C(Nc1c(OCc2ccc(Cl)cc2)cccc1-c1nnn[nH]1)c1ccccc1	25	
O=C(O)c1cccc(OCc2ccc(Cl)cc2)c1N1Cc2ccccc2C1=O	8.7	
O=C(O)CCCOc1cccc2c1CN(c1c(OCc3ccc(Cl)cc3)cccc1C(=O)O)C2=O	11	
O=C(O)COc1ccccc1C(=O)Nc1c(OCc2ccc(Cl)cc2)cccc1C(=O)O	1.2	
O=C(Nc1c(OCc2ccc(Cl)cc2)cccc1C(=O)NCCO)c1ccccc1	> 50	
O=C(Nc1c(OCc2ccc(Cl)cc2)cccc1C(=O)O)c1ccccc1	8.4	inhibition (Hepatitis C virus [3]): Active; IC50 [4]: > 50 µM
